Results as given in publication PMC8434099, “Selected Drug-Likeness Properties of 2-Arylidene-indan-1,3-dione Derivatives—Chemical Compounds with Potential Anti-Cancer Activity” (Molecules, 2021).

Legend:
[1] = Chromatographic (RP-HPLC) examination of lipophilicity, Snyder–Soczewiński model; format: physicochemical; conditions: for logkw (ACN) / logkw (MeOH): RP-HPLC, extrapolated Snyder–Soczewiński curve; for logkw (ACN) / −S (ACN): acetonitrile as organic modifier; for logkw (MeOH) / −S (MeOH): methanol as organic modifier; for Δ = |logkw-MeOH − logkw-ACN|: difference of logkw between modifiers; for −S (ACN) / −S (MeOH): slope of the Snyder–Soczewiński regression curve
Experimental: The chromatographic analysis was carried out on a Shimadzu device equipped with a pump system (LC-20AD model), a detector with a diode bench (SPD-M20A model), a degasser (DGU-20A 5R model), a chromatographic oven (CTO-10AS VP), autosampler (SIL-20AC HT model), and chromatographic column (LiChrospher 100 RP-18, 5 μm, Poznań, Poland). Analyses were performed, leading to a multicratic elution. The mobile phase was methanol (J. T. Backer, Phillipsburg, NJ, USA) or acetonitrile (J. T. Backer) and water (Hydrolab, HPL5UV model, Straszyn, Poland) in different volume ratios. In individual analyses, the concentration of the organic modifier expressed as a […] was 0.75–0.95 with a constant step of 0.05. The test compounds were dissolved in methanol. The injection volume was 10 µL. The flow was set at 1 mL/min, the temperature of the chromatography oven at 25 °C, and the detector temperature at 2 °C higher than the ambient temperature. Compounds were detected in the range 190–800 nm. All samples were tested in duplicate at least. Column dead time (tM) was determined using uracil (Sigma Aldrich). The retention coefficient was calculated using the following formula:(1) k=tR/tM−1, where tR is the retention time of the test compound in a given eluent composition, and tM is the chromatographic column dead time.
The value of lipophilicity was determined using the linear dependence of the decimal logarithm from the retention coefficient (logk) and the concentration of the organic modifier in the mobile phase, which was expressed as a volume fraction. For this purpose, the following formula was used:(2) logk=logkw+Sφ, where logk is the decimal logarithm of the retention coefficient, logkw is the value obtained by extrapolating the curve, S is the slope of the regression curve, and φ is the volume fraction of the organic modifier.
The coefficient of determination (R^2) was also calculated for the prepared curves.

B16F10 cells = test: Antiproliferative activity, MTT protocol; format: cell-based, mouse; conditions: 0.01 mg/mL, 72 h, relative to control culture
Experimental: (§1) Mouse melanoma (B16F10), human lung carcinoma (A549), and human cervix (HeLa) cell lines (kindly gifted by Prof. Tomasz Drewa, a Chair of Urology, Department of Regenerative Medicine, Collegium Medicum, Nicolaus Copernicus University, Bydgoszcz, Poland) were cultivated at 37 °C, controlled CO2 atmosphere (Binder, Tuttlingen, Germany), and high humidity with RPMI cell culture medium (with L-glutamine and sodium bicarbonate, Sigma-Aldrich), supplemented with 10% of fetal bovine serum (FBS, Biowest, Nuaillé, France), as well as antibiotics (penicillin, streptomycin) and antimycotics (amphotericin B) (Sigma-Aldrich). Combretastatin A4 (CA4), doxorubicin (DoX), and […] were purchased from Sigma-Aldrich.
Cells were counted with an automated cell counter (Countess® II FL, Invitrogen by Thermo Fisher Scientific Inc., Waltham, MA, USA). […] Absorbance readout was conducted using plate reader Multiskan Spectrum (Thermo Electron Corporation, Waltham, MA, USA) at 570 nm.
(§2) Combretastatin A4 (CA4), doxorubicin (DX), and […] were employed as positive controls. Biological evaluation was performed as three independent experiments; mean response and standard deviation were calculated using Excel software (v. 2013, Microsoft Corporation, Redmond, WA, USA).

[2] = test system: Human Serum Albumin (HSA); test: Binding to albumin, fluorescence quenching; conditions: calculated from association constant KS for albumin concentration in blood of 44 mg/mL (660 μM); for fraction unbound: human, human serum albumin solution (10 µM HSA), pH 7.4, read-out: free fraction (albumin)
Experimental: Fluorescence lifetime and fluorescence intensity of HSA solutions were measured using the time-resolved Fluorescence Spectrophotometer Life Spec II (Edinburgh Instruments Ltd., Livingston, UK) with the sub-nanosecond pulsed EPLED diode emitting a light of the wavelength 280 nm. The spectrometer was equipped with electronically cooled photomultiplier Hamamatsu R928 connected with TCC900 PC Card, which incorporates all the electronic modules required for Time-Correlated Single Photon Counting (TCSPC). The fluorescence decays were recorded at an emission wavelength of 350 nm. The data were fitted with an exponential decay to obtain total fluorescence intensity and lifetime. Measurements were performed at room temperature using quartz cuvettes 3.5 × 10 mm. The exposure time of the sample was 30 s. A spectrophotometer Jasco V-550 was used for absorption measurements.
Human Serum Albumin (HSA, 97%) was purchased from Sigma Aldrich. For the fluorescence quenching measurements, the 10 µM PBS solution of HSA at pH 7.4 was prepared, and 10 mM stock solutions of studied compounds were prepared in DMSO (dimethylsulfoxide). The final concentration of studied compounds in HSA solution varied between 0 and 70 µM.
Fluorescence quenching of albumin can be described by the Stern–Volmer Equation [21]: (3) F0/F=KSV[Q]+1, where F0 and F are the fluorescence intensities in the absence and presence of quencher, respectively, [Q] is the concentration of quencher, and KSV is the Stern–Volmer quenching constant.
Due to the fact that a quencher can absorb light at the excitation and/or emission wavelengths, the measured intensity should be corrected according to the Formula [22]:(4) Fobserved=Fcorrect×10^−Aex×dex/2−Aem×dem/2, where Fobserved is the measured fluorescence, Fcorrect is the fluorescence that would be measured in the absence of absorption effect, Aex and Aem are the absorbances of ligand at the excitation (280 nm) and emission wavelength (350 nm), respectively, and dex and dem are the cuvette pathlength in the excitation and emission direction (0.35 cm and 1 cm, respectively).
As the fluorophore can be quenched by collisions or by complex formation with the quencher, there are two types of quenching: dynamic and static. They can be distinguished by lifetime measurements. […] If the quenching is known to be dynamic, then:(5) F0/F=KD[Q]+1=τ0/τ, where τ0 and τ are the lifetimes in the absence and presence of quencher, and KD is the dynamic quenching constant.
In many cases, both static and dynamic quenching occurs for the same fluorophore, then modified Stern–Volmer equation has the form:(6) F0/F=(KD[Q]+1)(KS[Q]+1)=τ0/τ(KS[Q]+1),
The dynamic portion of the quenching (KD[Q] + 1), according to Equation (5), can be determined by lifetime measurements. The portion (KS[Q] + 1) relates to static quenching, and KS is the association constant, which is given by:(7) KS=[F−Q]/[F][Q], where [F−Q] is the concentration of complex fluorophore–quencher, [F] is the concentration of uncomplexed fluorophore (concentration of free HSA molecules), and [Q] is the concentration of quencher.
In this study, the tested compounds were added to the HSA solution, and the fluorescence intensity and lifetime at 350 nm were measured for varying concentrations of ligands. On the basis of absorbance measurements of ligands at 280 nm and 350 nm, the correct fluorescence intensities were estimated using Equation (4). Then, the Stern–Volmer constants, dynamic quenching constants, and association constants of studied compounds were determined using Equations (3), (5) and (6), respectively.
Knowing the value of association constant KS, it is possible to determine the theoretical percentage of the bound and free fraction of the drug for the physiological concentration of albumin. […]

A549 cells = test: Antiproliferative activity, MTT protocol; format: cell-based, human; conditions: 0.01 mg/mL, 72 h, relative to control culture
Experimental: as §1
(§3) Cells were counted with an automated cell counter (Countess® II FL, Invitrogen by Thermo Fisher Scientific Inc., Waltham, MA, USA). A number of 1 × 10^3 (B16F10, A549) or 2.5 × 10^3 cells were plated in each well of 96-well plate (Nunc Edge 2F, Thermo Fisher Scientific Inc.) and left for 24 h incubation prior to drug administration. After this period, the medium was replaced with a fresh medium containing the drugs (at final concentration of 0.01 mg/mL) and left for incubation for the next 72 h. A solution of thiazol blue tetrazolium (MTT, Sigma-Aldrich) was prepared in PBS at concentration of 5 mg/mL and administrated to the cell culture medium at the volume of 10% of the initial medium volume. After 2 h of incubation, the medium was removed, and crystals of formazan were solubilized in isopropanol (Sigma-Aldrich). Absorbance readout was conducted using plate reader Multiskan Spectrum (Thermo Electron Corporation, Waltham, MA, USA) at 570 nm.
as §2

HeLa cells = test: Antiproliferative activity, MTT protocol; format: cell-based, human; conditions: 0.01 mg/mL, 72 h
Experimental: as §1, §3, §2

Structure (SMILES)	logkw (ACN) [1]	logkw (MeOH) [1]	Δ = |logkw-MeOH − logkw-ACN| [1]	−S (ACN) [1]	−S (MeOH) [1]	Response of B16F10 cells (in words) (B16F10 cells)	bound fraction (albumin) [2] [%]	fraction unbound [2]	Compliance with the lipophilicity assumption of the Lipiński’s rule (logkw below 5) ([1]; analyses using methanol as a modifier)	Inhibition of development and division of A549 cells (in words) (A549 cells)	Number of HeLa cells compared to the control culture (HeLa cells) [%]	Effect on HeLa cells (in words) (HeLa cells; relative to control culture)
O=C1C(=Cc2cccc3ccccc23)C(=O)c2ccccc21 [Compound 3F, 2-[(naphthalen-1-yl)methylidene]-1H-indene-1,3(2H)-dione]	2.6107	3.9640	1.3533	2.7449	3.8549	responded best	93	0.07				
Cc1ccc(Oc2ccc(C=C3C(=O)c4ccccc4C3=O)cc2)cc1 [Compound 3D, 2-{[4-(4-methylphenoxy)phenyl]methylidene}-1H-indene-1,3(2H)-dione]	3.5726	5.6763	2.1037	3.5570	5.4798		97	0.03	do not meet this basic assumption of the Lipiński’s rule	most strongly inhibited		
COc1ccc2c(OC)ccc(C=C3C(=O)c4ccccc4C3=O)c2c1 [Compound 3G, 2-[(4,7-dimethoxynaphthalen-1-yl)methylidene]-1H-indene-1,3(2H)-dione]	2.8533		1.7531	2.8762			88	0.12		most strongly inhibited	7.15 ± 3.12	more effective than the control compounds
